Laboratory results reported in PMC12226733, “Evolution of iGluR ligand specificity, polyamine regulation, and ion selectivity inferred from a placozoan epsilon receptor” (Communications Biology, 2025).
Positions count from the first letter of the chain named. Like-named read-outs stand apart in the source and are kept apart here.

What was measured:
GluE1αA D646A variant = system: GluE1αA D646A variant
Source text: (§1) The cDNA of the T. adhaerens GluE1αA receptor was cloned into the mammalian expression vector pIRES2-EGFP, using a 5’ nested primer that inserted a mammalian consensus Kozak sequence of […] (Supplementary Table 5). Several mutants/variants of this receptor where also prepared via site directed mutagenesis using standard procedures and primers listed in Supplementary Table 5. For electrophysiological comparisons, we commissioned GenScript (USA) to synthesize the cDNA of the human GluA2 […] receptor (NCBI accession number NP_001077088.2), which was cloned into the pIRES2-EGFP vector with a Kozak sequence flanking the start codon and restriction enzymes SalI and BamHI at the 5’ and 3’ ends of the cDNA, respectively. Receptor cDNAs in the various pIRES2 constructs were transfected into Chinese Hamster Ovary-K1 (CHO-K1; Sigma) cells cultured in Dulbecco’s Modified Eagle Medium Nutrient Mixture F-12 (DMEM/F12) supplemented with 10% Fetal Bovine Serum (FBS) and 1% penicillin-streptomycin at 37°C. Transfections were done with 2 μg of plasmid vector using the transfecting reagent PolyJet^TM (SignaGen Laboratories, USA) according to the manufacturer’s instructions and plated onto glass coverslips in 35 mm dishes the next day. Transfected cells were incubated at 28°C for 2 to 4 days, then coverslips were transferred to a new 60 mm dish with 5 mL of external recording solution. […] Agonists and pharmacological compounds used in this study were dissolved in corresponding external solutions. […] Patch pipettes were pulled using a P-1000 micropipette puller (Sutter, USA), from thick-walled borosilicate tubing (1.5 and 0.86 outer and inner diameter, respectively), to a resistance of between 1 and 6 megaohms.

[1] = target: T1, GluE1αA wildtype receptor (Trichoplax adhaerens, UniProt B3SAW0); conditions: wt
T1 sequence (B3SAW0 1-341): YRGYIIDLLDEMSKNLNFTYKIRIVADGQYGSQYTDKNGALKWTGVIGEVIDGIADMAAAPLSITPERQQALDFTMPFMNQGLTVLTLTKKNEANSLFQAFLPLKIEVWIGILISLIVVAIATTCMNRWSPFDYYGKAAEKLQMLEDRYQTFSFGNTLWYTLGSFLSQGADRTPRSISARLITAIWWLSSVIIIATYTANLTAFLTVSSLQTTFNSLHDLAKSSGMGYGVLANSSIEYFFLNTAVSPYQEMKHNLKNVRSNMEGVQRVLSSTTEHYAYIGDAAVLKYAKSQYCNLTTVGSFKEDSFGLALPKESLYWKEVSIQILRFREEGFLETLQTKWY
Source text: as §1

GluE1αA S642Q plus D646A = format: cell-based, Trichoplax adhaerens; conditions: […]; for normalized conductance (G-V, Figure 5g), Avg: Na vs Na; for I-V current, Na vs Na, Avg of recordings: Figure 5b
GluE1αA S642N = target: T2, GluE1αA S642N (Trichoplax adhaerens, UniProt B3SAW0, S167N); format: cell-based; conditions: for normalized conductance (G-V, Figure 5g), Avg: Na vs Na; for I-V current, Na vs Na, Avg of recordings: Figure 5b
T2 sequence (B3SAW0 1-341 S167N): T1 sequence (B3SAW0 1-341) with S167N

GluE1αA wildtype = format: cell-based, Trichoplax adhaerens; conditions: […]; for normalized conductance (G-V, Figure 5g), Avg: Na vs Na; for I-V current, Na vs Na, Avg of recordings: Figure 5b
GluE1αA D646A = format: cell-based, Trichoplax adhaerens; conditions: […]; for normalized conductance (G-V, Figure 5g), Avg: Na vs Na; for I-V current, Na vs Na, Avg of recordings: Figure 5b

In the case of `NCCCNCCCCNCCCN` [spermine], the “reduction in peak inward current (percent block)” value (GluE1αA D646A variant; 200 µM extracellular spermine) is reported as 14.0 ± 1.1%, the “reduction in peak inward current” value (GluE1αA D646A variant; 1000 µM extracellular spermine) is reported as 40.2 ± 3.4% and the “normalized current elicited by 3 mM glycine with co-applied spermine, Avg” value (“normalized current elicited” for short) (GluE1αA D646A variant; spermine 200 µM extracellular) is reported as 0.8603. For the same compound, the “normalized current elicited” value (GluE1αA D646A variant; spermine 1000 µM extracellular) was 0.5979, the “normalized current elicited” value ([1]; spermine 200 µM extracellular) was 0.8673 and the “normalized current elicited” value ([1]; spermine 1000 µM extracellular) was 0.8213.

With `[Na+]` [Na] the “normalized conductance (G-V, Figure 5g), Avg” value (“normalized conductance” for short) (GluE1αA S642Q plus D646A; Vm 0.00) was 0.77, the “normalized conductance” value (GluE1αA S642Q plus D646A; Vm 20.00) was 0.75 and the “normalized conductance” value (GluE1αA S642Q plus D646A; Vm 40.00) was 0.71. The “normalized conductance” value (GluE1αA S642Q plus D646A; Vm 60.00) was 0.70, the “normalized conductance” value (GluE1αA S642Q plus D646A; Vm 80.00) was 0.74 and the “normalized conductance” value (GluE1αA S642Q plus D646A; Vm -20.00) was 0.79. The “normalized conductance” value (GluE1αA S642Q plus D646A; Vm -40.00) was 0.87, the “normalized conductance” value (GluE1αA S642Q plus D646A; Vm -60.00) was 0.95 and the “normalized conductance” value (GluE1αA S642Q plus D646A; Vm -80.00) was 1.00. For the same compound, the “I-V current, Na vs Na, Avg of recordings” value (GluE1αA S642Q plus D646A; Vm 0.00) was -0.02, the “I-V current, Na vs Na, Avg of recordings” value (GluE1αA S642Q plus D646A; Vm 20.00) was 0.15 and the “I-V current, Na vs Na, Avg of recordings” value (GluE1αA S642Q plus D646A; Vm 40.00) was 0.31. For the same compound, the “I-V current, Na vs Na, Avg of recordings” value (GluE1αA S642Q plus D646A; Vm 60.00) was 0.47, the “I-V current, Na vs Na, Avg of recordings” value (GluE1αA S642Q plus D646A; Vm 80.00) was 0.63 and the “I-V current, Na vs Na, Avg of recordings” value (GluE1αA S642Q plus D646A; Vm -20.00) was -0.18. For the same compound, the “I-V current, Na vs Na, Avg of recordings” value (GluE1αA S642Q plus D646A; Vm -40.00) was -0.37, the “I-V current, Na vs Na, Avg of recordings” value (GluE1αA S642Q plus D646A; Vm -60.00) was -0.57 and the “I-V current, Na vs Na, Avg of recordings” value (GluE1αA S642Q plus D646A; Vm -80.00) was -0.76. The pNa/pNa (GluE1αA S642N) was 1.08, the “normalized conductance” value (GluE1αA S642N; Vm 0.00) was 0.09 and the “normalized conductance” value (GluE1αA S642N; Vm 20.00) was 0.06. The “normalized conductance” value (GluE1αA S642N; Vm 40.00) was 0.14, the “normalized conductance” value (GluE1αA S642N; Vm 60.00) was 0.27 and the “normalized conductance” value (GluE1αA S642N; Vm 80.00) was 0.34. For the same compound, the “normalized conductance” value (GluE1αA S642N; Vm -20.00) was 0.24, the “normalized conductance” value (GluE1αA S642N; Vm -40.00) was 0.49 and the “normalized conductance” value (GluE1αA S642N; Vm -60.00) was 0.76. The “normalized conductance” value (GluE1αA S642N; Vm -80.00) was 1.00, the “I-V current, Na vs Na, Avg of recordings” value (GluE1αA S642N; Vm 0.00) was -0.00109 and the “I-V current, Na vs Na, Avg of recordings” value (GluE1αA S642N; Vm 20.00) was 0.0153. The “I-V current, Na vs Na, Avg of recordings” value (GluE1αA S642N; Vm 40.00) was 0.04, the “I-V current, Na vs Na, Avg of recordings” value (GluE1αA S642N; Vm 60.00) was 0.11 and the “I-V current, Na vs Na, Avg of recordings” value (GluE1αA S642N; Vm 80.00) was 0.22. The “I-V current, Na vs Na, Avg of recordings” value (GluE1αA S642N; Vm -20.00) was -0.0458, the “I-V current, Na vs Na, Avg of recordings” value (GluE1αA S642N; Vm -40.00) was -0.16 and the “I-V current, Na vs Na, Avg of recordings” value (GluE1αA S642N; Vm -60.00) was -0.37. For the same compound, the “I-V current, Na vs Na, Avg of recordings” value (GluE1αA S642N; Vm -80.00) was -0.64, the “normalized conductance” value (GluE1αA wildtype; Vm 0.00) was 0.54 and the “normalized conductance” value (GluE1αA wildtype; Vm 20.00) was 0.50. For the same compound, the “normalized conductance” value (GluE1αA wildtype; Vm 40.00) was 0.58, the “normalized conductance” value (GluE1αA wildtype; Vm 60.00) was 0.65 and the “normalized conductance” value (GluE1αA wildtype; Vm 80.00) was 0.67. For the same compound, the “normalized conductance” value (GluE1αA wildtype; Vm -20.00) was 0.70, the “normalized conductance” value (GluE1αA wildtype; Vm -40.00) was 0.83 and the “normalized conductance” value (GluE1αA wildtype; Vm -60.00) was 0.93. The “normalized conductance” value (GluE1αA wildtype; Vm -80.00) was 1.00, the “I-V current, Na vs Na, Avg of recordings” value (GluE1αA wildtype; Vm 0.00) was -0.0053 and the “I-V current, Na vs Na, Avg of recordings” value (GluE1αA wildtype; Vm 20.00) was 0.11. The “I-V current, Na vs Na, Avg of recordings” value (GluE1αA wildtype; Vm 40.00) was 0.23, the “I-V current, Na vs Na, Avg of recordings” value (GluE1αA wildtype; Vm 60.00) was 0.38 and the “I-V current, Na vs Na, Avg of recordings” value (GluE1αA wildtype; Vm 80.00) was 0.54. The “I-V current, Na vs Na, Avg of recordings” value (GluE1αA wildtype; Vm -20.00) was -0.15, the “I-V current, Na vs Na, Avg of recordings” value (GluE1αA wildtype; Vm -40.00) was -0.34 and the “I-V current, Na vs Na, Avg of recordings” value (GluE1αA wildtype; Vm -60.00) was -0.54. For the same compound, the “I-V current, Na vs Na, Avg of recordings” value (GluE1αA wildtype; Vm -80.00) was -0.77, the “normalized conductance” value (GluE1αA D646A; Vm 0.00) was 0.81 and the “normalized conductance” value (GluE1αA D646A; Vm 20.00) was 0.80. For the same compound, the “normalized conductance” value (GluE1αA D646A; Vm 40.00) was 0.77, the “normalized conductance” value (GluE1αA D646A; Vm 60.00) was 0.74 and the “normalized conductance” value (GluE1αA D646A; Vm 80.00) was 0.78. The “normalized conductance” value (GluE1αA D646A; Vm -20.00) was 0.83, the “normalized conductance” value (GluE1αA D646A; Vm -40.00) was 0.84 and the “normalized conductance” value (GluE1αA D646A; Vm -60.00) was 0.88. The “normalized conductance” value (GluE1αA D646A; Vm -80.00) was 1.00, the “I-V current, Na vs Na, Avg of recordings” value (GluE1αA D646A; Vm 0.00) was -0.000461 and the “I-V current, Na vs Na, Avg of recordings” value (GluE1αA D646A; Vm 20.00) was 0.18. The “I-V current, Na vs Na, Avg of recordings” value (GluE1αA D646A; Vm 40.00) was 0.36, the “I-V current, Na vs Na, Avg of recordings” value (GluE1αA D646A; Vm 60.00) was 0.53 and the “I-V current, Na vs Na, Avg of recordings” value (GluE1αA D646A; Vm 80.00) was 0.69. For the same compound, the “I-V current, Na vs Na, Avg of recordings” value (GluE1αA D646A; Vm -20.00) was -0.18, the “I-V current, Na vs Na, Avg of recordings” value (GluE1αA D646A; Vm -40.00) was -0.37 and the “I-V current, Na vs Na, Avg of recordings” value (GluE1αA D646A; Vm -60.00) was -0.56. The “I-V current, Na vs Na, Avg of recordings” value (GluE1αA D646A; Vm -80.00) was -0.76.
